Reference: US12448655B2, “Antibiotic susceptibility of microorganisms and related methods and systems” (CALIFORNIA INSTITUTE OF TECHNOLOGY, priority 2017, dated 2025)

What was measured:
Assay type in all cases: cell-based
Escherichia coli = assay: Minimum inhibitory concentrations (MICs) of Enterobacteriaceae clinical isolates
Source text: (§1) Clinical isolates referenced, minimum inhibitory concentrations (MICs), and categorical susceptibility based on CLSI breakpoints The below list of organisms are examples of clinically-relevant susceptible and resistant Enterobacteriaceae clinical isolates. Minimum inhibitory concentrations (MICs) are provided in μg/mL for the antibiotics listed.
(§2) Isolates, growth conditions, and antibiotic exposure conditions. 25 de-identified clinical isolates were obtained from the UCLA Clinical Microbiology Laboratory (CML) and the CDC's Enterobacteriaceae Carbapenem Breakpoint panel. In the case of isolates obtained from the UCLA CML, MICs were determined as described previously. Genotypic testing of the two Ec and two Kp isolates selected for their lack of known β-lactamase genes was performed by UCLA CML using a previously published assay and separately at the Keck School of Medicine of USC using the FDA-approved Cepheid Xpert® Carba-R test. Whole genome sequencing of the single Ebs isolate selected for its lack of known resistance genes was performed by the CDC [3]. All isolates were stored as glycerol stocks at −80° C. Glycerol stocks were streaked onto Trypticase Soy Agar with 5% sheep's blood (Becton Dickinson, Franklin Lakes, NJ, USA) and grown overnight at 37° C. Prior to experiments, a small clump of cells was resuspended in 2 mL Brain Heart Infusion Broth (BHI, Becton Dickinson) at 37° C.+5% CO2 with 500 rpm shaking for 2 to 4 h until visibly turbid. OD600 of the cultures was then measured, and working cultures prepared at an OD600 of 0.01-0.07 and grown for 50-145 min at 37° C.+5% CO2 with 500 rpm. Working cultures were then diluted 10× into control and treated aliquots for antibiotic exposure. For validation experiments, antibiotic exposure was performed in 100 μL volumes consisting of 80 μL Mueller Hinton II Broth (Becton Dickinson), 5 μL nuclease-free H2O (NF—H2O), 5 μL 20× antibiotic stock solution, and 10 μL of working culture. In control aliquots, antibiotic stock solution was replaced with NF—H2O. For filtration experiments, antibiotic exposure was performed in 100 μL volumes consisting of 65 μL Mueller Hinton II Broth (Becton Dickinson), 21 μL nuclease-free H2O (NF—H2O), 4 μL 25× antibiotic stock solution, and 10 μL of working culture. In control aliquots, antibiotic stock solution was replaced with NF—H2O.

Klebsiella pneumoniae = assay: as above
Source text: as §1, §2

Neisseria gonorrhoeae = assay: AST by inaccessible DNA without enhancing treatment, static incubation time course, qPCR (Example 7); details: penicillin-susceptible isolate ng_15; 1 μg/mL PEN; MHB; DNaseI secondary step
Method: Antibiotic susceptibility test was performed with methods herein described relying on b-lactam-induced cellular lysis, or cell-wall damage, to generate differences in DNA accessibility between the unexposed and exposed tubes. No enhancing treatment is performed in this example. In this example DNaseI is used to degrade the DNA made accessible by beta-lactam induced damage over incubation times larger than what is tested in examples 1-6 (incubation times >30 minutes)
The layout of this experiment is illustrated in FIG. 14 according to which a penicillin-susceptible isolate is incubated with penicillin for 15 min-6 hours. At each time point, DNaseI will be added to degrade the accessible DNA, then the DNaseI will be inactivated simultaneously with the lysis of the remaining cells. The quantified nucleic acids represent those from the cells with inaccessible DNA throughout the antibiotic exposure and incubation with DNaseI.
The treated and untreated samples were incubated at 37° C. for 15 minutes, Ihr, 2 hr, 3 hr, 4 hr, 5 hr, 6 hr. At each time point, bring the culture tubes into the BSC and incubate an aliquot of the contents with DNaseI to degrade the accessible DNA. • 8. secondary incubation of treated and untreated samples to degrade accessible DNA […]

Compound	Antibiotic MICs (Escherichia coli; isolate Ec_1)	Antibiotic MICs (Escherichia coli; isolate Ec_2)	Antibiotic MICs (Escherichia coli; isolate Ec_3)	Antibiotic MICs (Escherichia coli; isolate Ec_4)	Antibiotic MICs (Escherichia coli; isolate Ec_38)	Antibiotic MICs (Escherichia coli; isolate Ec_39)	Antibiotic MICs (Escherichia coli; isolate Ec_40)	Antibiotic MICs (Escherichia coli; isolate Ec_41)	Antibiotic MICs (Klebsiella pneumoniae; isolate Kp_1)	Antibiotic MICs (Klebsiella pneumoniae; isolate Kp_2)	Antibiotic MICs (Klebsiella pneumoniae; isolate Kp_7)	Antibiotic MICs (Klebsiella pneumoniae; isolate Kp_8)	antibiotic exposure time needed for a detectable CT ratio without enhancer (Neisseria gonorrhoeae)
CO/N=C(\C(=O)N[C@@H]1C(=O)N2C(C(=O)O)=C(CSc3nc(=O)c(=O)[nH]n3C)CS[C@H]12)c1csc(N)n1 [CRO, ceftriaxone]	<=1 μg/mL	<=1 μg/mL	<=1 μg/mL	<=1 μg/mL	>32 µg/mL	>32 µg/mL	>=64 μg/mL	>32 µg/mL	<=1 μg/mL	<=1 μg/mL	>32 µg/mL	>32 µg/mL	
penicillin													≥ 3 h
